Assay results as given in US20140329682A1, “METHOD OF CONTROLLING WEED IN A SUGAR CANE FIELD” (SUMITOMO CHEMICAL COMPANY, LIMITED, priority 2011, published 2014).

How the values were obtained:
Type in all cases: in vivo
Amaranthus retroflexus [1] = experiment: Herbicidal activity, soil surface spray, insecticide-treated stem cutting (Example 6); conditions: 3 cm stem cutting treated with clothianidin, thiamethoxiam, imidacloprid, dinotefuran, nitenpyram, acetamiprid or thiacloprid, four weeks after treatment
Experimental: A 30 cm to 40 cm stem cutting of sugar cane is placed on a wet soil, and germination is stimulated. The stem cutting from which a bud has grown to about 1 cm is selected, and the length of the stem cutting is adjusted to be 3 cm so that the stem cutting has one node. Clothianidin, thiamethoxiam, imidacloprid, dinotefuran, nitenpyram, acetamiprid or thiacloprid is adhered to the stem cutting. A soil is packed into a plastic pot, and seeds of Amaranthus retroflexus are seeded thereon. The stem cutting of sugar cane treated with clothianidin, thiamethoxiam, imidacloprid, dinotefuran, nitenpyram, acetamiprid or thiacloprid is planted in the soil packed into the pot at a depth of 2 cm. […] Thereafter, the pot for a test is placed in a greenhouse.

Amaranthus retroflexus [2] = experiment: Herbicidal activity, soil surface spray, azole-fungicide-treated stem cutting (Example 10); conditions: 3 cm stem cutting treated with azaconazole, bitertanol or another listed azole-type fungicide, four weeks after treatment
Source text: A 30 to 40 cm stem cutting of sugar cane is placed on a wet soil, and germination is stimulated. The stem cutting from which a bud has grown to about 1 cm is selected, and the length of the stem cutting is adjusted to be 3 cm so that the stem cutting has one node. Azaconazole, bitertanol, bromoconazole, cyproconazole, difenoconazole, diniconazole, epoxyconazole, fenbuconazole, fluquinconazole, flusilazole, flutriafol, hexaconazole, imibenconazole, ipconazole, metconazole, myclobutanil, penconazole, propiconazole, prothioconazole, simeconazole, tebuconazole, tetraconazole, triadimenol, triticonazole, fenarimol, nuarimol, pyrifenox, imazalil, oxpoconazole fumarate, pefurazoate, procloraz or triflumizole is adhered to the stem cutting. A soil is packed into a plastic pot, and seeds of Amaranthus retroflexus are seeded thereon. The stem cutting of sugar cane treated with azaconazole, bitertanol, bromoconazole, cyproconazole, difenoconazole, diniconazole, epoxyconazole, fenbuconazole, fluquinconazole, flusilazole, flutriafol, hexaconazole, imibenconazole, ipconazole, metconazole, myclobutanil, penconazole, propiconazole, prothioconazole, simeconazole, tebuconazole, tetraconazole, triadimenol, triticonazole, fenarimol, nuarimol, pyrifenox, imazalil, oxpoconazole fumarate, pefurazoate, procloraz or triflumizole is planted in the soil packed into the pot at a depth of 2 cm. […] Thereafter, the pot for a test is placed in a greenhouse.

Amaranthus retroflexus [3] = experiment: Herbicidal activity, soil surface spray, strobilurin-treated stem cutting (Example 8); conditions: 3 cm stem cutting treated with kresoxim-methyl, azoxystrobin or another listed strobilurin fungicide, four weeks after treatment
Source text: A 30 cm to 40 cm stem cutting of sugar cane is placed on a wet soil, and germination is stimulated. The stem cutting from which a bud has grown to about 1 cm is selected, and the length of the stem cutting is adjusted to be 3 cm so that the stem cutting has one node. Kresoxim-methyl, azoxystrobin, trifloxystrobin, fluoxastrobin, picoxystrobin, pyraclostrobin, dimoxystrobin, pyribencarb, metominostrobin, orysastrobin, enestrobin, pyraoxystrobin or pyrametostrobin is adhered to the stem cutting. A soil is packed into a plastic pot, and seeds of Amaranthus retroflexus are seeded thereon. The stem cutting of sugar cane treated with kresoxim-methyl, azoxystrobin, trifloxystrobin, fluoxastrobin, picoxystrobin, pyraclostrobin, dimoxystrobin, pyribencarb, metominostrobin, orysastrobin, enestrobin, pyraoxystrobin or pyrametostrobin is planted in the soil packed into the pot at a depth of 2 cm. […] Thereafter, the pot for a test is placed in a greenhouse.

Amaranthus retroflexus [4] = experiment: Herbicidal activity, soil surface spray, metalaxyl-treated stem cutting (Example 12); conditions: 3 cm stem cutting treated with metalaxyl or metalaxyl-M, four weeks after treatment
Experimental: A soil is packed into a plastic pot. Seeds of Amaranthus retroflexus are seeded thereon.

Amaranthus retroflexus [5] = experiment: Herbicidal activity, spray above weed before planting, azole-fungicide-treated stem cutting (Example 11); conditions: sprayed above weed, 3 cm stem cutting treated with azaconazole, bitertanol or another listed azole-type fungicide planted one week after treatment, four weeks after treatment
Experimental: A soil is packed into a plastic pat, and seeds of Amaranthus retroflexus are seeded thereon. Thereafter, the pot is placed in a greenhouse, and the weed is grown.
A 30 cm to 40 cm stem cutting of sugar cane is placed on a wet soil, and germination is stimulated. The stem cutting from which a bud has grown to about 1 cm is selected, and the length of the stem cutting is adjusted to be 3 cm so that the stem cutting has one node.
(§1) The pot for a test is placed in a greenhouse.

Amaranthus retroflexus [6] = experiment: Herbicidal activity, spray above weed one week before planting (Example 5); conditions: sprayed above weed three weeks after seeding, 3 cm stem cutting planted one week after treatment, four weeks after treatment
Experimental: (§2) A soil is packed into a plastic pot, and seeds of Amaranthus retroflexus are seeded thereon. Thereafter, the pot is placed in a greenhouse, and the weed is grown.
A 30 cm to 40 cm stem cutting of sugar cane is placed on a wet soil, and germination is stimulated. The stem cutting from which a bud has been grown to about 1 cm is selected, and the length of the stem cutting is adjusted to be 3 cm so that the stem cutting has one node.
as §1

Amaranthus retroflexus [7] = experiment: Herbicidal activity, spray above weed before planting, strobilurin-treated stem cutting (Example 9); conditions: sprayed above weed, 3 cm stem cutting treated with kresoxim-methyl, azoxystrobin or another listed strobilurin fungicide planted one week after treatment, four weeks after treatment
Experimental: as §2
A 30 cm to 40 cm stem cutting of sugar cane is placed on a wet soil, and germination is stimulated. The stem cutting from which a bud has grown to about 1 cm is selected, and the length of the stem cutting is adjusted to be 3 cm so that the stem cutting has one node. Kresoxim-methyl, azoxystrobin, trifloxystrobin, fluoxastrobin, picoxystrobin, pyraclostrobin, dimoxystrobin, pyribencarb, metominostrobin, orysastrobin, enestrobin, pyraoxystrobin or pyrametostrobin is adhered to the stem cutting.
as §1

Amaranthus retroflexus [8] = experiment: Herbicidal activity, soil surface spray after planting (Example 4); conditions: 3 cm stem cutting, one node, soil surface spray on date of planting, four weeks after treatment
Experimental: A 30 cm to 40 cm stem cutting of sugar cane is placed on a wet soil, and germination is stimulated. The stem cutting from which a bud has grown to about 1 cm is selected, and the length of the stem cutting is adjusted to be 3 cm so that the stem cutting has one node. A soil is packed into a plastic pot, and seeds of Amaranthus retroflexus are seeded thereon. The stem cutting of sugar cane is planted in the soil packed in the pot at a depth of 2 cm. […] Thereafter, the pot for a test is placed in a greenhouse.

Amaranthus retroflexus [9] = experiment: Herbicidal activity, spray above weed before planting, metalaxyl-treated stem cutting (Example 13); conditions: sprayed above weed, 3 cm stem cutting treated with metalaxyl or metalaxyl-M planted one week after treatment, four weeks after treatment
Experimental: A soil is packed into a plastic pot, and seeds of Amaranthus retroflexus are seeded thereon. Thereafter, a pot is placed in a greenhouse, and the weed is grown.
A 30 cm to 40 cm stem cutting of sugar cane is placed on a wet soil, and germination is stimulated. The stem cutting from which a bud has grown to about 1 cm is selected, and the length of the stem cutting is adjusted to be 3 cm so that the stem cutting has one node. Metalaxyl or metalaxyl-M is adhered to the stem cutting.
as §1

Amaranthus retroflexus [10] = experiment: Herbicidal activity, spray above weed before planting, insecticide-treated stem cutting (Example 7); conditions: sprayed above weed, 3 cm stem cutting treated with clothianidin, thiamethoxiam, imidacloprid, dinotefuran, nitenpyram, acetamiprid or thiacloprid planted one week after treatment, four weeks after treatment
Experimental: as §2
A 30 cm to 40 cm stem cutting of sugar cane is placed on a wet soil, and germination is stimulated. The stem cutting from which a bud has grown to about 1 cm is selected, and the length of the stem cutting is adjusted to be 3 cm so that the stem cutting has one node. Clothianidin, thiamethoxiam, imidacloprid, dinotefuran, nitenpyram, acetamiprid or thiacloprid is adhered to the stem cutting.
as §1

CS(=O)(=O)NC(=O)c1cc(Oc2ccc(C(F)(F)F)cc2Cl)ccc1[N+](=O)[O-] [fomesafen]
herbicidal activity against Amaranthus retroflexus (Amaranthus retroflexus [1]): the controlling effect on a weed can be confirmed
herbicidal activity against Amaranthus retroflexus (Amaranthus retroflexus [2]): the control effect on a weed can be confirmed
herbicidal activity against Amaranthus retroflexus (Amaranthus retroflexus [3]): the controlling effect on a weed can be confirmed
herbicidal activity against Amaranthus retroflexus (Amaranthus retroflexus [4]): the controlling effect on a weed can be confirmed
herbicidal activity against Amaranthus retroflexus (Amaranthus retroflexus [5]): the controlling effect on a weed can be confirmed
herbicidal activity against Amaranthus retroflexus (Amaranthus retroflexus [6]): the controlling effect on a weed can be confirmed
herbicidal activity against Amaranthus retroflexus (Amaranthus retroflexus [7]): the controlling effect on a weed can be confirmed
herbicidal activity against Amaranthus retroflexus (Amaranthus retroflexus [8]): the controlling effect on a weed can be confirmed
herbicidal activity against Amaranthus retroflexus (Amaranthus retroflexus [9]): the controlling effect on a weed can be confirmed
herbicidal activity against Amaranthus retroflexus (Amaranthus retroflexus [10]): the controlling effect on a weed can be confirmed
